From patent US20060222599A1, “Inhalative powder formulations containing the CGRP-antagonist 1 [N2-[3,5-dibromo-N-[[4-(3,4-dihydro-2(1H)-oxoquinazolin-3-yl)-1-piperidinyl]carbonyl]-D-tyrosyl]-L-lysyl]-4-(4-pyridinyl)-piperazine” (Boehringer Ingelheim International GmbH, priority 2003, published 2006)
Where two headings read alike, the source gives them in different places.

Experiments:
[1] = physical stability of the amorphous micronised active substance in powder mixtures with excipients; type: physicochemical
Source text: It is known that the amorphous state of solids is thermodynamically unstable. In particular, this contributes to the fact that microparticles which have amorphous parts or are purely amorphous are metastable in their physicochemical properties. Typically, amorphous or partially amorphous pharmaceutical active substances and excipients, such as sugars, for example, recrystallise spontaneously during storage under normal conditions. The process may be accelerated by an increase in the relative humidity and possibly the temperature. In association with this recrystallisation, the particles change their surface characteristics, their particle morphology and their particle size.

[2] = systemic bioavailability after pulmonary or nasal inhalation; type: in vivo; conditions: powder mixture with excipients, inhaled
hygroscopicity = type: physicochemical
[3] = specific surface area (multi point BET, nitrogen); type: physicochemical; conditions: air-jet-ground, anhydrous
Source text: • Measuring method: In order to determine the particle size the powder is fed into a laser diffraction spectrometer using a dispersing unit. The median value X50 refers to the particle size below which 50% of the quantity of particles fall. The Q(5.8) value describes the percentage of particles which are less than 5.8 μm in size. • Measuring device: Laser diffraction spectrometer (HELOS), Messrs. • Sympatec • Software: WINDOX Version 3.3/REL 1 • Dispersing unit: RODOS/dispersing pressure: 3 bar • Focal length: 100 mm [measuring range: 0.9 . . . . 175 μm] • Evaluation method: HRLD (V 3.3 Rel. 1) b) Determining the Specific Surface Area: • Measuring method: The specific surface is determined by exposing the powder sample to a nitrogen atmosphere at different pressures.
Cooling the sample causes the nitrogen molecules to be condensed on the surface of the particles. The quantity of condensed nitrogen is determined by means of the drop in pressure in the system and the specific surface area of the sample is calculated by means of the surface nitrogen requirement and the weight of the sample. • Measuring device: Tri Star Multi Point BET, Messrs. Micromeritics • Heating station: VacPrep 061, Messrs. Micromeritics
Heating: approx. 12 h/40° C.

[4] = conventional formulations; cited from earlier work

amorphous form on storage (X-ray powder diffractometry) ([1]; amorphous micronised particles, shelf life of the medicament): maintained throughout the shelf life | physical stability ([1]; powder mixtures with excipients): physically stable | bioavailability by pulmonary or nasal inhalation [2]: sufficiently bioavailable | hygroscopicity (hygroscopicity): hygroscopic | hygroscopicity (hygroscopicity; listed as active substance): strongly hygroscopic | specific surface area [3]: 20.2 m^2/g
SMILES: NCCCC[C@H](NC(=O)[C@@H](Cc1cc(Br)c(O)c(Br)c1)NC(=O)N1CCC(N2Cc3ccccc3NC2=O)CC1)C(=O)N1CCN(c2ccncc2)CC1 [A, 1-[N^2-[3,5-dibromo-N-[[4-(3,4-dihydro-2(1H)-oxoquinazolin-3-yl)-1-piperidinyl]carbonyl]-D-tyrosyl]-L-lysyl]-4-(4-pyridinyl)-piperazine]
oral bioavailability [4]: very limited oral bioavailability
